Source: ChEMBL document CHEMBL3244232, “Steric effects of substituents on phenethylamine hallucinogens. 3,4-(Methylenedioxy)amphetamine analogues alkylated on the dioxole ring” (J Med Chem, 1979)
Calls of active or inactive are those of the source. The calls are words filed in the database; no cut-off is given here.

Columns and labels:
Mus musculus [1] = assay: Toxicity in Swiss Webster mouse assessed as mortality at 0.675 mmol/kg, ip after 5 mins; assay type: organism-based; details: in vivo
Mus musculus [2] = assay: Induction of hyperactivity in Swiss Webster mouse assessed as exploratory behavior at 0.025 to 0.3 mmol/kg, ip up to 90 mins; assay type: functional, organism-based
Mus musculus [3] = assay: Toxicity in Swiss Webster mouse assessed as ataxia at 0.675 mmol/kg, ip after 2 to 3 mins; assay type: organism-based; details: in vivo
Mus musculus [4] = assay: Toxicity in Swiss Webster mouse assessed as tremor at 0.675 mmol/kg, ip after 2 to 3 mins; assay type: organism-based; details: in vivo
[5] = Toxicity in ip dosed Swiss Webster mouse after 5 mins; assay type: organism-based; details: in vivo
Mus musculus [6] = assay: Induction of spontaneous activity in Swiss Webster mouse assessed as spontaneous activity counts at 0.225 mmol/kg, ip measured over 90 mins; assay type: functional
[7] = Octanol-water partition coefficient, log P of the compound; assay type: physicochemical
Mus musculus [8] = assay: Toxicity in Swiss Webster mouse assessed as symmetric clonic convulsions with vocalization at 0.675 mmol/kg, ip after 2 to 3 mins; assay type: organism-based; details: in vivo
Mus musculus [9] = assay: Induction of spontaneous activity in Swiss Webster mouse assessed as spontaneous activity counts at 0.075 mmol/kg, ip measured over 90 mins; assay type: functional
Mus musculus [10] = assay: Induction of hyperactivity in Swiss Webster mouse assessed as grooming at 0.025 to 0.3 mmol/kg, ip up to 90 mins; assay type: functional, organism-based
Mus musculus [11] = assay: Induction of hyperactivity in Swiss Webster mouse assessed as salivation at 0.025 to 0.3 mmol/kg, ip up to 90 mins; assay type: functional, organism-based
Mus musculus [12] = assay: Induction of spontaneous activity in Swiss Webster mouse assessed as spontaneous activity counts at 0.025 mmol/kg, ip measured over 90 mins; assay type: functional
Mus musculus [13] = assay: Induction of hyperactivity in Swiss Webster mouse assessed as pilomotor erection at 0.025 to 0.3 mmol/kg, ip up to 90 mins; assay type: functional, organism-based
Mus musculus [14] = assay: Effect on Swiss Webster mouse assessed as sleeping at 0.025 to 0.3 mmol/kg, ip; assay type: ADME, organism-based; details: in vivo
Mus musculus [15] = assay: Induction of hyperactivity in Swiss Webster mouse assessed as grooming at 0.225 to 0.3 mmol/kg, ip up to 90 mins; assay type: functional, organism-based
Mus musculus [16] = assay: Induction of hyperactivity in Swiss Webster mouse assessed as salivation at 0.225 to 0.3 mmol/kg, ip up to 90 mins; assay type: functional, organism-based
Mus musculus [17] = assay: Induction of hyperactivity in Swiss Webster mouse assessed as exopthalmia at 0.225 to 0.3 mmol/kg, ip up to 90 mins; assay type: functional, organism-based
Mus musculus [18] = assay: Induction of spontaneous activity in Swiss Webster mouse assessed as spontaneous activity counts at 0.30 mmol/kg, ip measured over 90 mins; assay type: functional
Mus musculus [19] = assay: Induction of hyperactivity in Swiss Webster mouse assessed as sniffing at 0.025 to 0.3 mmol/kg, ip up to 90 mins; assay type: functional, organism-based
Mus musculus [20] = assay: Induction of hyperactivity in Swiss Webster mouse assessed as exopthalmia at 0.025 to 0.3 mmol/kg, ip up to 90 mins; assay type: functional, organism-based
Mus musculus [21] = assay: Effect on Swiss Webster mouse assessed as sleeping at 0.3 mmol/kg, ip after 20 mins; assay type: ADME, organism-based; details: in vivo
Mus musculus [22] = assay: Induction of hyperactivity in Swiss Webster mouse assessed as grooming at <0.3 mmol/kg, ip up to 90 mins; assay type: functional, organism-based
Mus musculus [23] = assay: Toxicity in Swiss Webster mouse assessed as occasional tremor at 0.3 mmol/kg, ip up to 20 mins; assay type: organism-based; details: in vivo
Mus musculus [24] = assay: Toxicity in Swiss Webster mouse assessed as clonic convulsions at 0.675 mmol/kg, ip after 8 to 10 mins; assay type: organism-based; details: in vivo
Mus musculus [25] = assay: Induction of hyperactivity in Swiss Webster mouse assessed as piloerection at <0.3 mmol/kg, ip up to 90 mins; assay type: functional, organism-based
Mus musculus [26] = assay: Toxicity in Swiss Webster mouse assessed as clonic convulsions at 0.3 mmol/kg, ip up to 20 mins; assay type: organism-based; details: in vivo
Mus musculus [27] = assay: Toxicity in Swiss Webster mouse assessed as mortality at 0.338 mmol/kg, ip after 5 mins; assay type: organism-based; details: in vivo
Mus musculus [28] = assay: Induction of hyperactivity in Swiss Webster mouse assessed as sniffing at <0.3 mmol/kg, ip up to 90 mins; assay type: functional, organism-based
Mus musculus [29] = assay: Induction of hyperactivity in Swiss Webster mouse assessed as exploratory behavior at <0.3 mmol/kg, ip up to 90 mins; assay type: functional, organism-based
Mus musculus [30] = assay: Toxicity in Swiss Webster mouse assessed as depression at <0.3 mmol/kg, ip up to 90 mins; assay type: organism-based; details: in vivo, 1.5 h
[31] = Chemical stability of the compound at 0.1 M at pH 5.3 at 37 degC after 24 hrs by 1H NMR spectroscopy; assay type: physicochemical; details: buffer, pH 5.3, 24 h
Mus musculus [32] = assay: Induction of hyperactivity in Swiss Webster mouse assessed as salivation at <0.3 mmol/kg, ip up to 90 mins; assay type: functional, organism-based
Mus musculus [33] = assay: Effect on Swiss Webster mouse assessed as sleeping at 0.675 mmol/kg, ip after 1 hr; assay type: ADME, organism-based; details: in vivo
Mus musculus [34] = assay: Effect on Swiss Webster mouse assessed as sleeping at <0.3 mmol/kg, ip up to 90 mins; assay type: ADME, organism-based; details: in vivo, 1.5 h
Mus musculus [35] = assay: Induction of hyperactivity in Swiss Webster mouse assessed as exopthalmia at <0.3 mmol/kg, ip up to 90 mins; assay type: functional, organism-based
Mus musculus [36] = assay: Toxicity in Swiss Webster mouse assessed as tremor at 0.675 mmol/kg, ip after 8 to 10 mins; assay type: organism-based; details: in vivo
Mus musculus [37] = assay: Toxicity in Swiss Webster mouse assessed as recovery at 0.675 mmol/kg, ip after 30 mins; assay type: organism-based; details: in vivo, 0.5 h

SMILES | Activity (Mus musculus [1]) | Activity (Mus musculus [2]) | MTD at 5 min [5] [µmol/kg] | Activity (Mus musculus [6]) [min⁻¹] | logP [7] | Activity (Mus musculus [9]) [min⁻¹] | Activity (Mus musculus [10]) | Activity (Mus musculus [11]) | Activity (Mus musculus [12]) [min⁻¹] | Activity (Mus musculus [13]) | Activity (Mus musculus [18]) [min⁻¹] | Activity (Mus musculus [19]) | Activity (Mus musculus [20]) | also measured
CC(N)Cc1ccc2c(c1)OC(C)O2 (centres undefined) | Toxic | Active | 300 | 94 | 2.1 | 25 | Active | Active | 39 | Active | 192 | Active | Active | Activity (Mus musculus [3]): Toxic; Activity (Mus musculus [4]): Toxic; Activity (Mus musculus [8]): Toxic; Activity (Mus musculus [14]): Non-toxic; Activity (Mus musculus [15]): Active; Activity (Mus musculus [16]): Active; Activity (Mus musculus [17]): Active
CC(N)Cc1ccc2c(c1)OCO2 (centres undefined) [TENAMFETAMINE] |  | Active |  | 105 | 1.64 | 276 | Active | Active | 64 | Active |  | Active | Active | 
CC(N)Cc1ccc2c(c1)OC(C)(C)O2 (centres undefined) | Toxic |  | 338 | 17 | 2.6 | 27 |  |  | 30 |  | 33 |  |  | Activity (Mus musculus [21]): Non-toxic; Activity (Mus musculus [22]): inactive; Activity (Mus musculus [23]): Toxic; Activity (Mus musculus [24]): Toxic; Activity (Mus musculus [25]): inactive; Activity (Mus musculus [26]): Toxic; Activity (Mus musculus [27]): Toxic; Activity (Mus musculus [28]): inactive; Activity (Mus musculus [29]): inactive; Activity (Mus musculus [30]): Toxic; Stability [31]: Stable; Activity (Mus musculus [32]): inactive; Activity (Mus musculus [33]): Non-toxic; Activity (Mus musculus [34]): Non-toxic; Activity (Mus musculus [35]): inactive; Activity (Mus musculus [36]): Toxic; Activity (Mus musculus [37]): Non-toxic
